Assays:
[1] = system: fasted normal non-diabetic rats; test: Blood glucose depression profile after subcutaneous injection; type: in vivo, rat (Male Sprague-Dawley); conditions: non-diabetic SD rats
Method: (§1) Blood glucose values were measured using commercially available test strips (Precision Xtra, Abbott Laboratories, Abbott Park, Ill.).
as §1, §1
Blood glucose values were measured using commercially available test strips (Precision Xtra, Abbott Laboratories, Abbott Park, Ill.). In addition, blood from each timepoint was centrifuged at 4 C to collect the serum.

[2] = Gel formation with glycogen (OD490 turbidity); conditions: 10 mg/ml rCon A, 10 or 1 mg/ml glycogen, pH 7 BES buffer, 10 minutes room temperature
Method: rCon A synthesised and purified according to Examples 42-44 were tested for their ability to form gels with glycogen. Alpha methyl mannose present in the samples was initially removed as follows. Samples were added to BioSpin 30 columns (Bio-Rad, Hercules, Calif.) that had been previously equilibrated with deionized water. The BioSpin columns were centrifuged for 4 minutes at 1000×g, and the resulting eluent contained rCon A samples that had been substantially desalted and alpha methyl mannose removed. Samples were combined and A280 measurements were obtained. Typically, the A280 measurements correlated with the A280 measurements obtained before removal of alpha methyl mannose.
The following assay was then used to measure gel formation with glycogen. Unmodified Oyster glycogen Type II (Sigma Aldrich, St. Louis, Mo.) was dissolved at 10 mg/ml in pH 7, 200 mM BES buffer (Sigma Aldrich, St. Louis, Mo.). […] The plate was allowed to develop at room temperature for 10 minutes, after which time the turbidity of each plate well was assayed using a commercially available microplate reader (SpectraMAX, Molecular Devices, Mountain View, Calif.) at a wavelength of 490 nm (OD490). […]

[3] = subcutaneous, 0.25 ml of 20 U of equivalent insulin/ml

## insulin-dextran: comparative insulin-dextran (MW 70K) conjugate made by CNBr coupling, 10% (w/w) insulin
[1]; [3]
  time serum glucose levels remain depressed post injection: at least five
  time to reach the glucose nadir (Tnadir): about 3 hours

## SCI-1: recombinant Con A construct, amino acid sequence SEQ ID NO: 1 (wild-type Con A)
[2]
  gel formation with glycogen: formed gels with glycogen that were comparable to gels formed by native (plant-derived) Con A controls

## insulin-glycogen: comparative conjugate of insulin with oyster glycogen (Type II) by CNBr coupling, Example 32
[1]; 2.5 equivalent U of insulin/kg subcutaneous
  glucose lowering compared to the insulin-dextran conjugates: lower glucose levels much more rapidly and to a greater extent

Reference: patent US9068013B2, “Recombinant lectins, binding-site modified lectins and uses thereof” (SMART CELLS, INC., priority 2010, dated 2015)
